From publication PMC11099041, “Tissue distribution and retention drives efficacy of rapidly clearing VHL-based PROTACs” (Communications Medicine, 2024)
Read-outs that look alike come from different tables or passages of the source.

Assay: Mouse pharmacokinetics in CD-1 mice (blood, kidney, liver, lung)
Assay type: in vivo
Settings: for Tmax: mouse, dose = c0, matrix = c1 of the line
Method: For the PK study, a total of 42 male CD-1 mice weighing ~20-35 g were acquired from Lingchang/Vital River Laboratory Animal Co., Ltd. (Shanghai/Beijing, P.R. China) and divided into 2 treatment groups. […] was dosed with one low dose (1 mg/kg) and one high dose group (20 mg/kg). For the low-dose groups, nine animals were required for organ quantification with termination at 24 hours. For the high-dose groups, 12 animals were required for organ quantification with termination at 48 hours. The animal was administered either 1 mg/kg or 20 mg/kg of formulation solution (10% HP-β-CD in acetate buffer at pH 4.0) by IV bolus through the left lateral tail vein injection. […] Blood samples were placed on wet ice, mixed, then frozen and stored in a freezer set to -60 °C or lower until analysis. After the blood samples were collected at the terminal time points, the animals were sacrificed, and the liver, lung and kidney were harvested. The tissues were rinsed in cold water and then blotted on filter papers, weighed and homogenized using pre-cooled water at the ratio of 1:4. The tissue homogenate samples were kept at -70 °C until analysis. […] Working standard solutions were spiked into 25 μL of blank matrix on the sample plate. […] The supernatant (20 μL) was transferred into the MS injection plate, then diluted with water before injection for LC-MS/MS analysis. The concentrations of […] were quantified by an LC-MS/MS method. The LC-MS/MS system was a Waters Acquity UPLC System (Milford, MA) coupled to a Sciex Triple Quad 6500 Plus mass spectrometer (AB Sciex, Foster City, CA). The aqueous mobile phase for the analysis was 0.1% formic acid and 2 mM ammonium formate in water/ACN (v:v, 95:5) (A), and the organic mobile phase was 0.1% formic acid and 2 mM ammonium formate in ACN/water (v:v, 95:5) (B). […] Column temperature was set at 50 °C. […] The flow rate was set at 0.7 mL/min. […] The lower limit of quantitation in all matrices was 5.1 ng/mL. The mean time concentration profile was generated for each group, and an overall AUC was then calculated with these sparse samples of rats and mice. […] The following parameters were estimated whenever possible: C0, Back-extrapolated concentration at time 0; Cmax, Maximum observed concentration; Tmax, Time of maximum observed concentration; AUC0-t, Area under the concentration-time curve from hour 0 to the last measurable concentration, estimated by the linear trapezoidal rule; AUC0-336, Area under the concentration-time curve from hour 0 to hour 336, estimated by the linear trapezoidal rule; DN AUC0-336, Dose normalized AUC0-336, calculated as AUC0-336/dose level; […] AUC0-∞ = AUC0-t + Ct/λz, where Ct is the last measurable concentration and λz is the elimination rate constant; t1/2, Elimination half-life, determined by ln(2)/λz; CL, Clearance, calculated as dose/AUC0-inf; Vd, Volume of distribution based on the terminal phase, calculated as: dose/(λz × AUC0-∞) Nominal doses and sampling times were used. […] Embedded zeros were excluded from kinetic analysis.

[1] = male, CD-1, mouse, in vivo, 1 mg/kg, Kidney, 1 mg/kg IV, individual animals, read-out: Concentration (µM) from 1 mg/kg Dosing Kidney
[2] = male, CD-1, mouse, in vivo, 1 mg/kg, Kidney, 1 mg/kg IV, mean, read-out: Concentration (µM) from 1 mg/kg Dosing Kidney
[3] = male, CD-1, mouse, in vivo, 1 mg/kg, Liver, 1 mg/kg IV, individual animals, read-out: Concentration (µM) from 1 mg/kg Dosing Liver
[4] = male, CD-1, mouse, in vivo, 1 mg/kg, Liver, 1 mg/kg IV, mean, read-out: Concentration (µM) from 1 mg/kg Dosing Liver
[5] = male, CD-1, mouse, in vivo, 1 mg/kg, Lung, 1 mg/kg IV, individual animals, read-out: Concentration (µM) from 1 mg/kg Dosing Lung
[6] = male, CD-1, mouse, in vivo, 1 mg/kg, Lung, 1 mg/kg IV, mean, read-out: Concentration (µM) from 1 mg/kg Dosing Lung
[7] = male, CD-1, mouse, in vivo, 20 mg/kg, Blood, 20 mg/kg IV, individual animals, read-out: Concentration (µM) from 20 mg/kg Dosing Blood
[8] = male, CD-1, mouse, in vivo, 20 mg/kg, Blood, 20 mg/kg IV, mean, read-out: Concentration (µM) from 20 mg/kg Dosing Blood
[9] = male, CD-1, mouse, in vivo, 20 mg/kg, Kidney, 20 mg/kg IV, individual animals, read-out: Concentration (µM) from 20 mg/kg Dosing Kidney
[10] = male, CD-1, mouse, in vivo, 20 mg/kg, Kidney, 20 mg/kg IV, mean, read-out: Concentration (µM) from 20 mg/kg Dosing Kidney
[11] = male, CD-1, mouse, in vivo, 20 mg/kg, Liver, 20 mg/kg IV, mean, read-out: Concentration (µM) from 20 mg/kg Dosing Liver
[12] = male, CD-1, mouse, in vivo, 20 mg/kg, Lung, 20 mg/kg IV, individual animals, read-out: Concentration (µM) from 20 mg/kg Dosing Lung
[13] = male, CD-1, mouse, in vivo, 20 mg/kg, Lung, 20 mg/kg IV, mean, read-out: Concentration (µM) from 20 mg/kg Dosing Lung
[14] = male, CD-1, mouse, kidney, intravenous, 20 mg/kg, Kidney, 20 mg/kg IV, individual animals, read-out: Concentration (µM) from 20 mg/kg Dosing Kidney
[15] = male, CD-1, mouse, kidney, intravenous, 20 mg/kg, Kidney, 20 mg/kg IV, mean, read-out: Concentration (µM) from 20 mg/kg Dosing Kidney
[16] = male, CD-1, mouse, liver, intravenous, 20 mg/kg, Liver, 20 mg/kg IV, mean, read-out: Concentration (µM) from 20 mg/kg Dosing Liver
[17] = male, CD-1, mouse, lung, intravenous, 20 mg/kg, Lung, 20 mg/kg IV, mean, read-out: Concentration (µM) from 20 mg/kg Dosing Lung

Which results are given for `Cc1ncsc1-c1ccc(C(C)NC(=O)C2CC(O)CN2C(=O)C(c2cc(N3CCC(CN4CCC(OC5CC(Oc6cc(N7C8CCC7CN(c7cc(-c9ccccc9O)nnc7N)C8)ccn6)C5)CC4)CC3)no2)C(C)C)cc1` (centres unmarked) [A947]?
concentration at 4 h (male, CD-1, mouse, in vivo, 1 mg/kg, Blood, 1 mg/kg IV, mean, read-out: Concentration (µM) from 1 mg/kg Dosing Blood): 0.005 µM; concentration at 4 h [1]: 0.753 µM; concentration at 4 h [2]: 0.561 µM; concentration at 8 h [1]: 0.282 µM; concentration at 8 h [2]: 0.32 µM; concentration at 24 h [1]: 0.019 µM; concentration at 24 h [2]: 0.023 µM; concentration at 4 h [3]: 0.071 µM; concentration at 4 h [4]: 0.079 µM; concentration at 8 h [3]: 0.057 µM; concentration at 8 h [4]: 0.045 µM; concentration at 24 h (male, CD-1, mouse, in vivo, 1 mg/kg, Liver, 1 mg/kg IV, individual animals, BLOQ <5.1 ng/mL, read-out: Concentration (µM) from 1 mg/kg Dosing Liver): 0.006 µM; concentration at 24 h [4]: 0.006 µM; concentration at 4 h [5]: 0.098 µM; concentration at 4 h [6]: 0.094 µM; concentration at 8 h [5]: 0.048 µM; concentration at 8 h [6]: 0.062 µM; concentration at 24 h [5]: 0.014 µM; concentration at 24 h [6]: 0.014 µM; concentration at 0.083 h [7]: 13.3 µM; concentration at 0.083 h [8]: 11.1 µM; concentration at 0.25 h [7]: 4.28 µM; concentration at 0.25 h [8]: 3.65 µM; concentration at 0.5 h [7]: 2.54 µM; concentration at 0.5 h [8]: 1.93 µM; concentration at 1 h [7]: 0.951 µM; concentration at 1 h [8]: 0.847 µM; concentration at 2 h [7]: 0.294 µM; concentration at 2 h [8]: 0.252 µM; concentration at 4 h [8]: 0.154 µM; concentration at 8 h [7]: 0.048 µM; concentration at 8 h [8]: 0.047 µM; concentration at 4 h [9]: 16.9 µM; concentration at 4 h [10]: 14 µM; concentration at 8 h [9]: 6.14 µM; concentration at 8 h [10]: 8.43 µM; concentration at 4 h [11]: 48.4 µM; concentration at 8 h (male, CD-1, mouse, in vivo, 20 mg/kg, Liver, 20 mg/kg IV, individual animals, read-out: Concentration (µM) from 20 mg/kg Dosing Liver): 15.1 µM; concentration at 8 h [11]: 19.2 µM; concentration at 4 h [12]: 5.1 µM; concentration at 4 h [13]: 5.75 µM; concentration at 8 h [12]: 1.59 µM; concentration at 8 h [13]: 2.31 µM; concentration at 24 h [14]: 0.28 µM; concentration at 24 h [15]: 0.361 µM; concentration at 48 h [14]: 0.11 µM; concentration at 48 h [15]: 0.086 µM; Kp (male, CD-1, mouse, kidney, intravenous, 20 mg/kg, for the 2 dose levels (1, 20 mg/kg), read-out: Tissue-to-blood AUC ratio, kidney): 160 to 243; concentration at 24 h (male, CD-1, mouse, liver, intravenous, 20 mg/kg, Liver, 20 mg/kg IV, individual animals, read-out: Concentration (µM) from 20 mg/kg Dosing Liver): 14.3 µM; concentration at 24 h [16]: 10.8 µM; concentration at 48 h [16]: 1.9 µM; Kp (male, CD-1, mouse, liver, intravenous, for the 2 dose levels, read-out: Tissue-to-blood AUC ratio, liver): 50 to 127; concentration at 24 h [17]: 0.602 µM; concentration at 48 h [17]: 0.658 µM; Kp (male, CD-1, mouse, lung, intravenous, for the 2 dose levels, read-out: Tissue-to-blood AUC ratio, lung): 26 to 50; clearance (male, CD-1, mouse, whole blood, iv, CD-1 mice IV, blood, dose = c0): 15 to 20 mL/min/kg; Tmax (male, blood, kidney, liver, lung (per row, column Matrix), CD-1 mice IV): 0.083 h; Tmax (male, kidney, liver, lung, CD-1 mice IV): 4 h; Initial decrease of concentration in blood (mice IV 1 and 20 mg/kg, within initial 4 hours): > 90%
